Assay results taken from patent publication US20240166652A1, “MODULATORS OF THE INTEGRATED STRESS PATHWAY” (Calico Life Sciences LLC, priority 2017, published 2024).

Each compound was assayed on ATF4 luciferase reporter in HEK293T cells (assay: ATF4-Luc assay (ATF4 luciferase reporter, tunicamycin-treated HEK293T cells)). Conditions: Homo sapiens, HEK-293T; HEK293T cells carrying the ATF4 luciferase reporter, 1 μg/mL tunicamycin, 7 hours.
Format: cell-based, human

Row | SMILES | EC50 [nM]
1 | O=C(COc1nccs1)NC12CCC(NC(=O)COc3ccc(Cl)c(F)c3)(CC1)[C@@H](O)C2 [Compound 577, 2-(4-chloro-3-fluorophenoxy)-N-[(2S)-2-hydroxy-4-{2-[(1,3-thiazol-2-yl)oxy]acetamido}bicyclo[2.2.2]octan-1-yl]acetamide] | > 2000
2 | Cc1cccc(COCC(=O)NC23CC(NC(=O)COc4ccc(Cl)c(F)c4)(C2)C3)n1 [Compound 128, 2-(4-chloro-3-fluorophenoxy)-N-(3-{2-[(6-methylpyridin-2-yl)methoxy]acetamido}bicyclo[1.1.1]pentan-1-yl)acetamide] | 500 to 2000
3 | CN(C(=O)COc1ccc(Cl)c(Cl)c1)C12CC(NC(=O)COc3ccc(Cl)c(Cl)c3)(C1)C2 [Compound 198, 2-(3,4-dichlorophenoxy)-N-{3-[2-(3,4-dichlorophenoxy)acetamido]-bicyclo[1.1.1]pentan-1-yl}-N-methylacetamide] | 50 to 250
4 | O=C(COc1ccc(F)c(C(F)F)c1)NC12CCC(NC(=O)COc3ccc(F)c(F)c3)(CC1)[C@@H](O)C2 [Compound 775, 2-[3-(difluoromethyl)-4-fluorophenoxy]-N-{(3S)-4-[2-(3,4-difluorophenoxy)acetamido]-3-hydroxybicyclo[2.2.2]octan-1-yl}acetamide] | < 10
5 | Cc1ccc(OCC(=O)NC23CCC(NC(=O)COc4ccc(Cl)c(F)c4)(CC2)[C@@H](O)C3)cc1C [Compound 471, 2-(4-chloro-3-fluorophenoxy)-N-{(2S)-4-[2-(3,4-dimethylphenoxy)acetamido]-2-hydroxybicyclo[2.2.2]octan-1-yl}acetamide] | < 10
6 | CNC(CC(=O)NC12CCC(NC(=O)COc3ccc(Cl)c(F)c3)(CC1)[C@@H](O)C2)c1ccc(Cl)cc1 (stereo partly drawn) [Compound 712, N-{(3S)-4-[2-(4-chloro-3-fluorophenoxy)acetamido]-3-hydroxybicyclo[2.2.2]octan-1-yl}-3-(4-chlorophenyl)-3-(methylamino)propanamide] | 500 to 2000
7 | O=C(O)CN(CCCOc1ccc(Cl)c(F)c1)C12CC(NC(=O)COc3ccc(Cl)c(F)c3)(C1)C2 [Compound 687, ({3-[2-(4-chloro-3-fluorophenoxy)acetamido]bicyclo[1.1.1]pentan-1-yl}[3-(4-chloro-3-fluorophenoxy)propyl]amino)acetic Acid] | 500 to 2000
8 | O=C(COc1ccc(C(F)(F)F)c(F)c1)NC12CCC(NC(=O)COc3ccc4c(c3)OC(F)(F)O4)(CC1)[C@@H](O)C2 [Compound 773, 2-[(2,2-difluoro-2H-1,3-benzodioxol-5-yl)oxy]-N-[(2S)-4-{2-[3-fluoro-4-(trifluoromethyl)phenoxy]acetamido}-2-hydroxybicyclo[2.2.2]octan-1-yl]acetamide] | < 10
9 | O=C(COc1ccc(F)cc1)NC12CCC(NC(=O)COc3ccc(F)c(F)c3)(CC1)[C@@H](O)C2 [Compound 617, 2-(3,4-difluorophenoxy)-N-{(2S)-4-[2-(4-fluorophenoxy)acetamido]-2-hydroxybicyclo[2.2.2]octan-1-yl}acetamide] | < 10
10 | COCc1ccccc1OCC(=O)NC12CCC(NC(=O)COc3ccc(Cl)c(F)c3)(CC1)[C@@H](O)C2 [Compound 776, 2-(4-chloro-3-fluorophenoxy)-N-[(2S)-2-hydroxy-4-{2-[2-(methoxymethyl)phenoxy]acetamido}bicyclo[2.2.2]octan-1-yl]acetamide] | > 2000
11 | CN(CC(=O)NC12CCC(NC(=O)COc3ccc(Cl)c(F)c3)(CC1)C[C@@H]2O)c1ccc(Cl)cc1 [Compound 656, 2-(4-chloro-3-fluorophenoxy)-N-[(3S)-4-{2-[(4-chlorophenyl)(methyl)amino]acetamido}-3-hydroxybicyclo[2.2.2]octan-1-yl]acetamide] | 10 to 50
12 | O=C(COc1ccc(OC(F)F)c(F)c1)NC12CCC(NC(=O)COc3ccc(Cl)c(F)c3)(CC1)[C@@H](O)C2 [Compound 801, 2-(4-chloro-3-fluorophenoxy)-N-[(2S)-4-{2-[4-(difluoromethoxy)-3-fluorophenoxy]acetamido}-2-hydroxybicyclo[2.2.2]octan-1-yl]acetamide] | < 10
13 | O=C(Cn1cc(F)cnc1=O)NC12CCC(NC(=O)COc3ccc(Cl)c(F)c3)(CC1)[C@@H](O)C2 [Compound 646, 2-(4-chloro-3-fluorophenoxy)-N-{(2S)-4-[2-(5-fluoro-2-oxopyrimidin-1(2H)-yl)acetamido]-2-hydroxybicyclo[2.2.2]octan-1-yl}acetamide] | 500 to 2000
14 | O=C(COc1ccc(Cl)c(F)c1)NC12CCC(NC(=O)COc3ccc(C(F)(F)F)c(F)c3)(CC1)[C@@H](O)C2 [Compound 832, 2-(4-chloro-3-fluorophenoxy)-N-[(3S)-4-{2-[3-fluoro-4-(trifluoromethyl)phenoxy]acetamido}-3-hydroxybicyclo[2.2.2]octan-1-yl]acetamide] | < 10
15 | O=C(COc1ccc(S(F)(F)(F)(F)F)cc1)NC12CCC(NC(=O)COc3ccc(Cl)c(F)c3)(CC1)[C@@H](O)C2 [Compound 839, 2-(4-chloro-3-fluorophenoxy)-N-[(2S)-2-hydroxy-4-{2-[4-(pentafluoro-lambda^6-sulfanyl)phenoxy]acetamido}bicyclo[2.2.2]octan-1-yl]acetamide] | < 10
16 | O=C(COc1ccc(F)cc1)NC12CCC(NC(=O)COc3ccc(F)cc3)(CC1)[C@@H](O)C2 [Compound 550, N,N′-[(2S)-2-hydroxybicyclo[2.2.2]octane-1,4-diyl]bis[2-(4-fluorophenoxy)acetamide]] | < 10

Row | SMILES | EC50 [nM]
17 | COc1cc(OCC(=O)NC23CC(NC(=O)COc4ccc(Cl)c(F)c4)(C2)C3)ccc1Cl [Compound 126, 2-(4-chloro-3-fluorophenoxy)-N-{3-[2-(4-chloro-3-methoxyphenoxy)acetamido]-bicyclo[1.1.1]pentan-1-yl}acetamide] | < 10
18 | O=C(COc1ccc(Cl)c(F)c1)NC12CC(NC(=O)COc3ccc(OC(F)(F)F)c(F)c3)(C1)C2 [Compound 415, 2-(4-chloro-3-fluorophenoxy)-N-(3-{2-[3-fluoro-4-(trifluoromethoxy)phenoxy]acetamido}bicyclo[1.1.1]pentan-1-yl)acetamide] | < 10
19 | O=C(COc1ccc(C(F)F)cc1)NC12CCC(NC(=O)COc3ccc(Cl)c(F)c3)(CC1)[C@@H](O)C2 [Compound 539, 2-(4-chloro-3-fluorophenoxy)-N-[(2S)-4-{2-[4-(difluoromethyl)phenoxy]acetamido}-2-hydroxybicyclo[2.2.2]octan-1-yl]acetamide] | < 10
20 | CCOC(=O)/C=C1\CC2(NC(=O)COc3ccc(Cl)c(F)c3)CCC1(NC(=O)COc1ccc(Cl)c(F)c1)CC2 [Compound 672, ethyl (2E)-{1,4-bis[2-(4-chloro-3-fluorophenoxy)acetamido]bicyclo[2.2.2]octan-2-ylidene}acetate] | 10 to 50
21 | O=C(COc1ccc(Cl)c(Cl)c1)NC12CC(NCCOc3ccc(Cl)c(F)c3)(C1)C2 [Compound 124, N-(3-{[2-(4-chloro-3-fluorophenoxy)ethyl]amino}bicyclo[1.1.1]pentan-1-yl)-2-(3,4-dichlorophenoxy)acetamide] | 10 to 50
22 | O=C(COc1ccc(Cl)c(F)c1)NC12CCC(NC(=O)COc3ccc(Cl)c(F)c3)(C1)C2 [Compound 177, N,N′-(bicyclo[2.1.1]hexane-1,4-diyl)bis[2-(4-chloro-3-fluorophenoxy)acetamide]] | < 10
23 | O=C(COc1ccc(Cl)c(F)c1)NC12CCC(NS(=O)(=O)Cc3cccc(C(F)(F)F)c3)(CC1)[C@@H](O)C2 [Compound 430, 2-(4-chloro-3-fluorophenoxy)-N-[(3S)-3-hydroxy-4-({[3-(trifluoromethyl)phenyl]methanesulfonyl}amino)bicyclo[2.2.2]octan-1-yl]acetamide] | 500 to 2000
24 | O=C(COc1ccc(Cl)c(F)c1)NC12CCC(N[C@@H](CCOc3ccc(Cl)cc3)C(=O)O)(CC1)C[C@@H]2O (single isomer, unassigned) [Compound 694] | 250 to 500
25 | O=C(CNC(=O)c1ccc(OC(F)(F)F)cn1)NC12CC(NC(=O)COc3ccc(Cl)c(F)c3)(C1)C2 [Compound 386, N-[2-({3-[2-(4-chloro-3-fluorophenoxy)acetamido]bicyclo[1.1.1]pentan-1-yl}amino)-2-oxoethyl]-5-(trifluoromethoxy)pyridine-2-carboxamide] | > 2000
26 | CC(C)(C)c1ccc(OCC(=O)NC23CC(NC(=O)COc4ccc(Cl)c(F)c4)(C2)C3)cn1 [Compound 221, 2-[(6-tert-butylpyridin-3-yl)oxy]-N-{3-[2-(4-chloro-3-fluorophenoxy)acetamido]bicyclo[1.1.1]pentan-1-yl}acetamide] | 500 to 2000
27 | N#Cc1ccc(COCC(=O)NC23CC(NC(=O)COc4ccc(Cl)c(Cl)c4)(C2)C3)cc1 [Compound 159, 2-[(4-cyanophenyl)methoxy]-N-{3-[2-(3,4-dichlorophenoxy)acetamido]-bicyclo[1.1.1]pentan-1-yl}acetamide] | 50 to 250
28 | Cc1ccc(OCC(=O)NC23CC(NC(=O)COc4ccc(Cl)c(F)c4)(C2)C3)c(F)n1 [Compound 245, 2-(4-chloro-3-fluorophenoxy)-N-(3-{2-[(2-fluoro-6-methylpyridin-3-yl)oxy]acetamido}bicyclo[1.1.1]pentan-1-yl)acetamide] | 10 to 50
29 | O=C(COc1ccc(Cl)cc1)NC12CCC(NC(=O)COc3ccc(Cl)cc3)(CC1)C2 [Compound 527, N,N′-(bicyclo[2.2.1]heptane-1,4-diyl)bis[2-(4-chlorophenoxy)acetamide]] | 10 to 50
30 | O=C(COc1ccc(Cl)c(F)c1)NC12CCC(NCCOc3ccc(Cl)cc3)(CC1)C(O)C2 (centres unmarked) [Compound 336, 2-(4-chloro-3-fluorophenoxy)-N-(4-{[2-(4-chlorophenoxy)ethyl]amino}-3-hydroxybicyclo[2.2.2]octan-1-yl)acetamide] | < 10
31 | O=C(COc1ccc(Cl)c(Cl)c1)NC12CC(NC(=O)COc3ccccn3)(C1)C2 [Compound 401, 2-(3,4-dichlorophenoxy)-N-(3-{2-[(pyridin-2-yl)oxy]acetamido}bicyclo[1.1.1]pentan-1-yl)acetamide] | 10 to 50
32 | Cc1ccc(CCOCC(=O)NC23CC(NC(=O)COc4ccc(Cl)c(Cl)c4)(C2)C3)cc1 [Compound 154, 2-(3,4-dichlorophenoxy)-N-(3-{2-[2-(4-methylphenyl)ethoxy]acetamido}-bicyclo[1.1.1]pentan-1-yl)acetamide] | 250 to 500
